# US8124593B2, “Methods of treatment using sapacitabine” (Cyclacel Limited, priority 2007, dated 2012)
# Legend:
# cytidine deaminase = cytidine deaminase (Homo sapiens, UniProt P32320); conditions: compared with ara-C; cited from earlier work
# CTCL = conditions: cited from earlier work
# [1] = tested on: refractory solid tumours or lymphomas; experiment: Open label dose escalation study of oral sapacitabine b.i.d. for 7 or 14 consecutive days every 21 days; assay type: in vivo
# Method: The study was conducted at the Institute for Drug Development, Cancer Therapy and Research Center (CTRC) in San Antonio, Tex. and Fox Chase Cancer Center in Philadelphia, Pa. The primary objective of the study was to evaluate the safety profile of sapacitabine administered twice daily for 14 consecutive days or 7 consecutive days every 21 days.
# The study was an open label dose escalation study of oral sapacitabine administered twice daily (b.i.d.) for 7 or 14 consecutive days every 21 days. One treatment cycle was 3 weeks. At least 3 patients were enrolled at each dose level. Dose escalation proceeded if ≦⅓ or ≦ 2/6 patients experienced dose limiting toxicity (DLT) during the first treatment cycle.
# [2] = tested on: advanced leukemias or myelodysplastic syndromes; experiment: Phase I study, b.i.d. x 7 days orally every 21 days; assay type: in vivo
# Method: The Phase I study was conducted at M.D. Anderson Cancer Center (UTMDACC) in Houston, Tex. The primary objective was to define the MTD of a dosing schedule, b.i.d.×7 days orally every 21 days.
# Eligible patients had relapsed/refractory leukemias or MDS, or untreated disease if not willing to proceed with conventional systemic chemotherapy, adequate organ functions and performance status of 0-2. At least 3 patients were enrolled at each dose level. The MTD was the highest dose level at which ≦ 2/6 patients experienced a DLT during the first treatment cycle.
# [3] = tested on: solid tumours or lymphomas; conditions: 14 days every 21 days, body surface area basis; cited from earlier work
# colon cancer = conditions: model of colon cancer; cited from earlier work
# variety of cancers = conditions: phase I data; cited from earlier work
# P388 leukemia = conditions: mouse P388 leukemia model; cited from earlier work
# [4] = tested on: poorly differentiated gastric adenocarcinoma; conditions: human xenografts; cited from earlier work
# [5] = single-dose in rodents, repeat dose up to 3 months in mice and dogs; cited from earlier work
# NSCLC = conditions: 10 mg/m^2 intravenously over 30 minutes every three weeks; cited from earlier work
# [6] = 7-day schedule every 21 days, oral
# [7] = relapsed or refractory AML and MDS
# Chain of cytidine deaminase (P32320 whole entry, species assumed): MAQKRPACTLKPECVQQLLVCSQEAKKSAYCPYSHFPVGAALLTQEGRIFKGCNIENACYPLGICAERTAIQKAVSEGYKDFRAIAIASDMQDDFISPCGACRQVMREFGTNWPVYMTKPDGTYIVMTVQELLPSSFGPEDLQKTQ
smiles,measurement,setting,value
"N#C[C@H]1[C@H](O)[C@@H](CO)O[C@H]1n1ccc(N)nc1=O [CNDAC, 2′-C-Cyano-2′-deoxy-β-D-arabino-pentafuranosylcytosine]",substrate of cytidine deaminase,cytidine deaminase,weak substrate
"Nc1ccn([C@@H]2O[C@H](CO)[C@@H](O)C2(F)F)c(=O)n1 [Gemcitabine, gemcitabine]",response rate,CTCL,60-70%
"CCCCCCCCCCCCCCCC(=O)Nc1ccn([C@@H]2O[C@H](CO)[C@@H](O)[C@@H]2C#N)c(=O)n1 [sapacitabine, 1-(2-C-cyano-2-deoxy-β-D-arabino-pentofuranosyl)-N^4-palmitoyl cytosine]",MTD,[1]; [6],100 mg b.i.d.
same,RD (recommended dose),[1]; [6],75 mg b.i.d.
same,dose limiting toxicity,"[1]; 7 and 14 day schedules, 16 patients",reversible myelosuppression
same,best response by investigator assessment,"[1]; 7 day schedule, squamous cell carcinoma",stable disease in one patient
same,recommended dose,"[1]; 14 day schedule every 21 days, oral",50 mg b.i.d.
same,"non-hematological toxicities, severity",[1]; in vivo,mostly mild to moderate
same,MTD,[2]; [6],375 mg b.i.d.
same,recommended dose,[2]; [6],325 mg b.i.d.
same,"patients with reduction in bone marrow blast counts to <5%, AML",[2]; AML subgroup of responders,9 patients
same,"patients with reduction in bone marrow blast counts to <5%, MDS",[2]; MDS subgroup of responders,2 patients
same,patients with reduction in bone marrow blast counts to <5%,[2]; all evaluable patients,11 patients of 42 evaluable
same,"common non-hematologic adverse events, intensity","[2]; all grades, regardless of causality",mild to moderate in intensity
same,CRs with incomplete recovery of platelets,[2]; in vivo,2 patients
same,complete remissions (CRs),[2]; in vivo,2 patients
same,deaths from complications of neutropenic colitis,[2]; in vivo,One
same,predominant DLT,[2]; in vivo,gastrointestinal toxicity
same,DLT: abdominal pain/small bowel obstruction,[2]; number of patients,1 n
same,DLT: diarrhea,[2]; number of patients,3 n
same,DLT: neutropenic colitis,[2]; number of patients,2 n
same,antileukemic activity,[2]; [7],promising antileukemic activity
same,tolerability,[2]; [7],well tolerated
same,recommended dose,[3],33 mg/m^2
same,anticancer activity,colon cancer,strong anticancer activity
same,"increasing survival and preventing spread of metastases to the liver, comparison",colon cancer,superior to either gemcitabine or 5-FU
same,dose limiting toxicity,variety of cancers,myelosuppression
same,tolerability,variety of cancers,well tolerated
same,"antitumour activity, comparison",P388 leukemia,much more potent antitumour activity than 5′-DFUR and gemcitabine
same,"antitumour activity, comparison",[4],much more potent antitumour activity than 5′-DFUR and gemcitabine
same,major toxicities,[5],"hematopoietic, gastrointestinal, and testicular"
Nc1ccn([C@@H]2CO[C@H](CO)O2)c(=O)n1 [troxacitabine],activity in NSCLC,NSCLC,little activity
